Values of other authors in patent US9827197B2, “Diclofenac formulations and methods of use” (APR Applied Pharma Research s.a., priority 2005, dated 2017).

Legend:
[1] = commercially available sugar coated tablets
[2] = water at 25 degrees Celsius

terminal half life [1]	solubility in water [2] [g/100 ml]	SMILES
about 1.9 hours		O=C(O)Cc1ccccc1Nc1c(Cl)cccc1Cl [Diclofenac potassium]
	22	OC[C@@H](O)[C@@H](O)[C@H](O)[C@H](O)CO [mannitol]
